Test system: peripheral blood leukocytes and neutrophils
Conditions: cyclophosphamide only, 50 mg/kg i.p.; blood at 96 hours; FIG. 4
Description: Mice were injected intraperitoneally (i.p.) with 50 mg/kg body weight of cyclophospharnide. The mice were then divided into the following three groups:
2. Mice receiving cyclophosphamide only (control 1); and
3. An additional group of mice received oral administration of water only (control 2).
Ninety six hours after the beginning of receiving the above treatments, blood samples were taken from each of the treated mice. Blood cell counts were carried out in a Coulter counter and differential cell counts were performed on smear preparations stained with May-Grunvald-Giemsa solution.

With O=P1(N(CCCl)CCCl)NCCCO1 (centres unmarked) [cyclophosphamide] the “number of neutrophils compared to mice without chemotherapeutic treatment (control 2)” value was “reduced” and the “number of peripheral blood leukocytes compared to mice without chemotherapeutic treatment (control 2)” value was “reduced”.

— patent US6537587B1, “Compositions containing muscle-derived active agents” (Can-Fite Biopharma Ltd., priority 1999, dated 2003)
